This note sets out measurements from ChEMBL document CHEMBL1132484, “New alpha-substituted succinate-based hydroxamic acids as TNFalpha convertase inhibitors” (J Med Chem, 1999).

One test has as its target Neutrophil collagenase (Homo sapiens, UniProt P22894). Kind of test: Inhibition of MMP-8 (matrix metalloprotease-8).
Test [1] has as its target T1, Disintegrin and metalloproteinase domain-containing protein 17 (Homo sapiens, UniProt P78536). Description: Inhibition of TNF(tumor necrosis factor) in human blood. The format is functional.
For test [2], the target named is T1, Disintegrin and metalloproteinase domain-containing protein 17. Kind of test: Inhibitory activity against Tumor necrosis factor alpha-converting enzyme (TACE) in blood. The test is classed as tissue-based.
In the next test the target is T2, Interstitial collagenase (Homo sapiens, UniProt P03956).
T2 sequence (P03956 whole entry): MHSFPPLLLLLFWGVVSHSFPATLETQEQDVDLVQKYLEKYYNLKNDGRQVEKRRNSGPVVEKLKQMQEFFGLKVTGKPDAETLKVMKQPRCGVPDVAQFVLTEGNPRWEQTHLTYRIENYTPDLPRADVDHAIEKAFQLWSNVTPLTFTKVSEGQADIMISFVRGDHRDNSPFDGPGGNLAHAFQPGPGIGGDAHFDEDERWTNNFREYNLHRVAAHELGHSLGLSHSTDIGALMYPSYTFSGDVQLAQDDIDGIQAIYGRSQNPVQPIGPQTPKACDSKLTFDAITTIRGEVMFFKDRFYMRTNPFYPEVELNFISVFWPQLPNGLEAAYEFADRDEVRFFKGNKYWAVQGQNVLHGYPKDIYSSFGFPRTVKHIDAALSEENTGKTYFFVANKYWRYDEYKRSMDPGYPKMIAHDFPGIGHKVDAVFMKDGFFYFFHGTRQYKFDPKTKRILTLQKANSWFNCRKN
Description: Inhibitory activity against MMP-1 (Matrix metalloprotease-1).

T1 sequence (P78536 whole entry, the tested form may be a part): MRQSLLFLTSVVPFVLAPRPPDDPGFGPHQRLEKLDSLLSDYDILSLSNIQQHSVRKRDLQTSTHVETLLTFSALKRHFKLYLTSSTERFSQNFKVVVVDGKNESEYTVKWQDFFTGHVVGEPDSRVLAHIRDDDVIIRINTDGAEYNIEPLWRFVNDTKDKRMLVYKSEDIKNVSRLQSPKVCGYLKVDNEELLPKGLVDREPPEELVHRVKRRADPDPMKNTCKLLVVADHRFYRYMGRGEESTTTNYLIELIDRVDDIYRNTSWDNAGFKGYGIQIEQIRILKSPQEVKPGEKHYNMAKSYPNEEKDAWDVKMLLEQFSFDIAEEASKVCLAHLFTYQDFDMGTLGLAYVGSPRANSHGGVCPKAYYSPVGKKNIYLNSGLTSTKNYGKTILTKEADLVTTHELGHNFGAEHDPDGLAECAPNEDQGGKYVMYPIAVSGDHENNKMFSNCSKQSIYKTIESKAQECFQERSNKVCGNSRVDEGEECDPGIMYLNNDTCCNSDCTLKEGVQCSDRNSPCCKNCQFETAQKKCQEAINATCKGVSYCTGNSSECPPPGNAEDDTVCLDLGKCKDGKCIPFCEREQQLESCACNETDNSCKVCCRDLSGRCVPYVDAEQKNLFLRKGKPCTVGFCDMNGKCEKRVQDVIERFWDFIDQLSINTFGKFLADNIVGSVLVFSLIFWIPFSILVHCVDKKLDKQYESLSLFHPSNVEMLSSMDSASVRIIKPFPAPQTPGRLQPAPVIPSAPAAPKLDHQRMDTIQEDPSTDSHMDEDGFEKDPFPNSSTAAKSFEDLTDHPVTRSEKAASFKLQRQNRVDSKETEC
Neutrophil collagenase, sequence (P22894 whole entry, the tested form may be a part): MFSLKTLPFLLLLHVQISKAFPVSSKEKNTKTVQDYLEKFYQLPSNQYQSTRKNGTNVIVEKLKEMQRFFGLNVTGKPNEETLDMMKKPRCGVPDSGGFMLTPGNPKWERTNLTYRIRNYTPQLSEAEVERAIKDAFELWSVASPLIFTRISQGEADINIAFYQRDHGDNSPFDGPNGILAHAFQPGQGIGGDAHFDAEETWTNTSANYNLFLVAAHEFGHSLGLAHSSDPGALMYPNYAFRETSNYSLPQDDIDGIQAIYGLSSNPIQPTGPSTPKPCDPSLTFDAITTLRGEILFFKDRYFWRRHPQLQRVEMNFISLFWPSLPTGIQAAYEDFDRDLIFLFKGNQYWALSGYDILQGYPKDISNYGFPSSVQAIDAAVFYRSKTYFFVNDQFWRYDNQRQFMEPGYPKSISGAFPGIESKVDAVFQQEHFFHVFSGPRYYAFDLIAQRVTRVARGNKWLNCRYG

Consider `C=CCC(C(=O)NO)C(CC(C)C)C(=O)N[C@@H](Cc1ccccc1)C(=O)NC` (single isomer, unassigned), for which the IC50 (commonly the point on the concentration scale where inhibition reaches its midpoint) against Neutrophil collagenase came out at 3 nM; in test [1] it was 2300 nM; in test [2], 0.2 nM.
As for `CNC(=O)[C@@H](NC(=O)[C@H](CC(C)C)[C@H](NCc1cccc2cccnc12)C(=O)NO)C(C)(C)C`, the IC50 at Neutrophil collagenase was determined as 0.2 nM; on Interstitial collagenase it was 1.7 nM; in test [1], 34000 nM; in test [2] it was 0.23 nM.
For `CNC(=O)[C@@H](NC(=O)[C@H](CC(C)C)[C@H](NS(=O)(=O)c1ccc2ncnc(O)c2c1)C(=O)NO)C(C)(C)C`, in that order: 3.7 nM, 1.3 nM, 280 nM and 0.57 nM.
As for `CNC(=O)[C@@H](NC(=O)[C@H](CC(C)C)[C@H](NS(=O)(=O)c1ccc2ncccc2c1)C(=O)NO)C(C)(C)C`, the values for the concentration for half-maximal inhibition (IC50) (at Interstitial collagenase; in test [1]; in test [2]) were 1.2 nM, 440 nM and 1.6 nM, respectively.
As for `CNC(=O)[C@@H](NC(=O)C(CC(C)C)C(C(=O)NO)N(C)S(=O)(=O)c1ccccc1)C(C)(C)C` (single isomer, unassigned), the IC50 was determined as 1.5 nM against Interstitial collagenase, 3000 nM in test [1] and 0.61 nM in test [2].
As for `CNC(=O)[C@@H](NC(=O)[C@H](CC(C)C)[C@H](OCc1ccc2c(ccc(=O)n2C)c1)C(=O)NO)C(C)(C)C`, the IC50 at Interstitial collagenase stood at 0.88 nM; in test [1] it was 1440 nM; in test [2], 1 nM.
As for `CNC(=O)[C@@H](NC(=O)[C@H](CC(C)C)[C@H](NS(=O)(=O)c1cccc2cnccc12)C(=O)NO)C(C)(C)C`, the IC50 was 2.6 nM against Interstitial collagenase, 1100 nM in test [1] and 3.1 nM in test [2].
For `CNC(=O)[C@@H](NC(=O)[C@H](CC(C)C)[C@H](NC(=O)c1cccc2cccnc12)C(=O)NO)C(C)(C)C` the same measures were 2.2 nM, 8000 nM and 2 nM.
For `CNC(=O)[C@@H](NC(=O)[C@H](CC(C)C)[C@@H](C(=O)NO)N(C)S(=O)(=O)c1cccc2cccnc12)C(C)(C)C`, the IC50 was 2.4 nM against Interstitial collagenase, 4500 nM in test [1] and 4.4 nM in test [2].
For `CNC(=O)[C@@H](NC(=O)[C@H](CC(C)C)[C@H](NS(=O)(=O)c1cccc2cccnc12)C(=O)NO)C(C)(C)C`, the IC50 on Interstitial collagenase is 1.1 nM; in test [1], 8100 nM; in test [2] it was 4.2 nM.
As for `CNC(=O)[C@@H](NC(=O)C(CC(C)C)C(C(=O)NO)C1CCCC1)C(C)(C)C` (single isomer, unassigned), the IC50 against Neutrophil collagenase worked out at 20 nM; at Interstitial collagenase, 4 nM; in test [1] it was 8800 nM; in test [2], 1 nM.
For `CNC(=O)[C@@H](NC(=O)[C@H](CCCOCc1ccccc1)[C@H](OCc1ccc2nc(C)nc(O)c2c1)C(=O)NO)C(C)(C)C`, the IC50 against Interstitial collagenase amounted to 330 nM; in test [2], 12 nM.
On to `CNC(=O)[C@@H](NC(=O)[C@@H](CC(=O)NO)CC(C)C)C(C)(C)C` [RO-319790], for which the IC50 is 10 nM against Interstitial collagenase, above 50000 nM in test [1] and 20 nM in test [2].
For `CNC(=O)[C@@H](NC(=O)[C@H](CC(C)C)[C@@H](C(=O)NO)N1CCOCC1)C(C)(C)C` the same measures were 2.2 nM, 3000 nM and 3.4 nM.
For the compound `CNC(=O)[C@@H](NC(=O)[C@H](CC(C)C)[C@H](SCc1cccc2cccnc12)C(=O)NO)C(C)(C)C`, the IC50 on Interstitial collagenase was found to be 2.8 nM; in test [1] it was 6200 nM; in test [2] it was 0.8 nM.
